The values that follow come from ChEMBL document CHEMBL5661979, “Pharmacological inhibition of BMK1 suppresses tumor growth through promyelocytic leukemia protein” (Cancer Cell, 2010).

The target of assay [1] is Phosphatidylinositol 3-kinase catalytic subunit type 3 (Homo sapiens, UniProt Q8NEB9). The experiment in a line: Inhibition of PIK3C3 in human HeLa cells lysate pre incubated for 15 mins followed by ATP acyl phosphate probe addition and measured after 10 mins by LC-MS/MS analysis. The assay is classed as subcellular.
Phosphatidylinositol 3-kinase catalytic subunit type 3, sequence (Q8NEB9 whole entry): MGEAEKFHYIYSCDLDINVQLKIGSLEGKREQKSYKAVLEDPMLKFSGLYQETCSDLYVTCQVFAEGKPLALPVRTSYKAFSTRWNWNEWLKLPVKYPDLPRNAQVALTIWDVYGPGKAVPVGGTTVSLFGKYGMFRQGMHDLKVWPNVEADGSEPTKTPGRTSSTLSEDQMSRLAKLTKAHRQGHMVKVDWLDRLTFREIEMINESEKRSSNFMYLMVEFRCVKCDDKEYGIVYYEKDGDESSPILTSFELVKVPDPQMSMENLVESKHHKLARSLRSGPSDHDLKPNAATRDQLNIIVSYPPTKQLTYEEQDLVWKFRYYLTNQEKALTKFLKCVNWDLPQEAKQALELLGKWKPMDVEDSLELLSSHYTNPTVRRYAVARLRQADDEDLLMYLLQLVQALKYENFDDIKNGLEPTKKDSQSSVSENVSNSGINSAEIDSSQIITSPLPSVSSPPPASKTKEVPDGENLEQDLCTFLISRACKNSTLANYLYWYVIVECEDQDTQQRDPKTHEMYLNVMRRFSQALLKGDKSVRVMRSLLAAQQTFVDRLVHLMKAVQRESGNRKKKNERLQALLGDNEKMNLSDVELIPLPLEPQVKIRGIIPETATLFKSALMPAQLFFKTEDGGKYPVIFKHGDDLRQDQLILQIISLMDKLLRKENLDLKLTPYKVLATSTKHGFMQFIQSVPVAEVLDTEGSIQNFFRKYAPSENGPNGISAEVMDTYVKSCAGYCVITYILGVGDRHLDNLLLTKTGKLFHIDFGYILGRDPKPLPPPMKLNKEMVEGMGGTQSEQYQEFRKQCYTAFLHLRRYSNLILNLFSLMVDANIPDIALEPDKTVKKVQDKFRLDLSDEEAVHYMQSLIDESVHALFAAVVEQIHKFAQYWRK
Assay [2] has as its target Insulin-like growth factor 1 receptor (Homo sapiens, UniProt P08069). The assay is described as follows: Inhibition of IGF1R in human HeLa cells lysate pre incubated for 15 mins followed by ADP acyl phosphate probe addition and measured after 10 mins by LC-MS/MS analysis. The assay is classed as subcellular.
In assay [3] the target is Glycogen synthase kinase-3 alpha (Homo sapiens, UniProt P49840). The assay is described as follows: Inhibition of GSK3A in human HeLa cells lysate pre incubated for 15 mins followed by ATP acyl phosphate probe addition and measured after 10 mins by LC-MS/MS analysis. In kind it is subcellular.
Glycogen synthase kinase-3 alpha, sequence (P49840 whole entry): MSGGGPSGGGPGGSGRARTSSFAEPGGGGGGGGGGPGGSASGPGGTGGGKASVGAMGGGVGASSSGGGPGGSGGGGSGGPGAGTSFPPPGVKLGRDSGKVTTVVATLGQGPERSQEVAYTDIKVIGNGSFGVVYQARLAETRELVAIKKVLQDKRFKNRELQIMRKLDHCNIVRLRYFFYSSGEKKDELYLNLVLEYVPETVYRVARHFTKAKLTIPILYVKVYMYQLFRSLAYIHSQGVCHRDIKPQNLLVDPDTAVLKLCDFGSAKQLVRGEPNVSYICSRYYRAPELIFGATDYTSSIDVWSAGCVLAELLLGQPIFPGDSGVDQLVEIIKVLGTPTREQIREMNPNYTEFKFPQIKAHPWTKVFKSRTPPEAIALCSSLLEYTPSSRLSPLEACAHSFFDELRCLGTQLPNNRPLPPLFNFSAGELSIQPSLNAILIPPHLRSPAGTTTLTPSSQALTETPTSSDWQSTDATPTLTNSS
The nature of assay [4]: Inhibition of PKD1/2 in human HeLa cells lysate at 50 uM pre incubated for 15 mins followed by ATP acyl phosphate probe addition and measured after 10 mins by LC-MS/MS analysis relative to control. The conditions noted are these: 25 min, condition cancer.
Assay [5] concerns the target Serine/threonine-protein kinase 24 (Homo sapiens, UniProt Q9Y6E0). The assay is described as follows: Inhibition of MST3 in human HeLa cells lysate at 10 uM pre incubated for 15 mins followed by ATP acyl phosphate probe addition and measured after 10 mins by LC-MS/MS analysis relative to control. The assay is classed as subcellular. The conditions noted are these: time 25.0 min.

In assay [6] the target is Mitogen-activated protein kinase 4 (Homo sapiens, UniProt P31152). The assay is described as follows: Inhibition of ERK4 in human HeLa cells lysate pre incubated for 15 mins followed by ATP acyl phosphate probe addition and measured after 10 mins by LC-MS/MS analysis. The assay is classed as subcellular.
Mitogen-activated protein kinase 4, sequence (P31152 whole entry): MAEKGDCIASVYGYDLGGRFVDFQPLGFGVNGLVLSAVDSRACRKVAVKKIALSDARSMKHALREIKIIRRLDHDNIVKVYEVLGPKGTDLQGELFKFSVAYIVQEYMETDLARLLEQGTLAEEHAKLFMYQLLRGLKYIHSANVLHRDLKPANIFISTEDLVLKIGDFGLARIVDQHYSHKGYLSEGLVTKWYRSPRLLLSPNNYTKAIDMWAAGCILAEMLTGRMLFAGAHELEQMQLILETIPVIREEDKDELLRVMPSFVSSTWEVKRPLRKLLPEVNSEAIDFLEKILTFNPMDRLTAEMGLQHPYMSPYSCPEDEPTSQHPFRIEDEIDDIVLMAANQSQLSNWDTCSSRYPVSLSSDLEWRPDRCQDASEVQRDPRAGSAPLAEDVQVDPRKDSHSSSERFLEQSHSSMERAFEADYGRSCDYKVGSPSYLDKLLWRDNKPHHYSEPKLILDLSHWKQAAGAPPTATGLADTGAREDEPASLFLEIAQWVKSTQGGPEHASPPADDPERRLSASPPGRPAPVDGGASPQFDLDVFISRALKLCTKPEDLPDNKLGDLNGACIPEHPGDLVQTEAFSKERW

Serine/threonine-protein kinase 24, sequence (Q9Y6E0 whole entry, looked up): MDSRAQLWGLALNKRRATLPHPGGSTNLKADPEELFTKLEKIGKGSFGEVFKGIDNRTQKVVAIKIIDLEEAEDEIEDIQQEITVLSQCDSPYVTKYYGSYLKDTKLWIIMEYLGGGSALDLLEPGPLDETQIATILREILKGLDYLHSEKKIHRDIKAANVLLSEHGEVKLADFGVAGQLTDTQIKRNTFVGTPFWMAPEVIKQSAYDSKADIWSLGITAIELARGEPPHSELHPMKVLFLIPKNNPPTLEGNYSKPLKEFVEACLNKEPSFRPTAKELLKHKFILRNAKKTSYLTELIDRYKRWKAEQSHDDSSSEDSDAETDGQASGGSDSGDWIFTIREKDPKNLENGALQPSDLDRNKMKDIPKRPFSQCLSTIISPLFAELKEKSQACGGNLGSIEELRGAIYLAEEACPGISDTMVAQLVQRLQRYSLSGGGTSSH
Insulin-like growth factor 1 receptor, sequence (P08069 31-736 limits assumed): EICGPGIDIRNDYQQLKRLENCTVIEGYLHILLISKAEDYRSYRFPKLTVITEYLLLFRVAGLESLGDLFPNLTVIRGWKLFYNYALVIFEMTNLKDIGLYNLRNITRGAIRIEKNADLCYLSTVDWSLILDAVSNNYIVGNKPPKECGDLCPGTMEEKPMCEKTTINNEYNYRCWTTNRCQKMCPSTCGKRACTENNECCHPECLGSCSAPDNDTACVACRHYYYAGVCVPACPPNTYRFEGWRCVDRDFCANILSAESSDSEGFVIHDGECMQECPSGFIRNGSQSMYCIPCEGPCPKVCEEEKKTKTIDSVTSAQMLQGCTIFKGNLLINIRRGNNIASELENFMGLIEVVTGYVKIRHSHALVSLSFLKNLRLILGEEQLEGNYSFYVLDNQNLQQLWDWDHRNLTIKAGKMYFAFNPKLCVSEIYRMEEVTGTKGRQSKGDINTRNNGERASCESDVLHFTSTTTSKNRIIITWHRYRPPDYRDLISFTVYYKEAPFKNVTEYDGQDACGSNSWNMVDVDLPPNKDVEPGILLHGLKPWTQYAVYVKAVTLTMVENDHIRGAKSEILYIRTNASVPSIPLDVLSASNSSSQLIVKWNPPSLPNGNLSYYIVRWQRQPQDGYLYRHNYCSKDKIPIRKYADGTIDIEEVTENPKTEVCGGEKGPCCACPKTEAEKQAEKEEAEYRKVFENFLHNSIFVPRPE
Insulin-like growth factor 1 receptor, sequence (P08069 741-1367 limits assumed): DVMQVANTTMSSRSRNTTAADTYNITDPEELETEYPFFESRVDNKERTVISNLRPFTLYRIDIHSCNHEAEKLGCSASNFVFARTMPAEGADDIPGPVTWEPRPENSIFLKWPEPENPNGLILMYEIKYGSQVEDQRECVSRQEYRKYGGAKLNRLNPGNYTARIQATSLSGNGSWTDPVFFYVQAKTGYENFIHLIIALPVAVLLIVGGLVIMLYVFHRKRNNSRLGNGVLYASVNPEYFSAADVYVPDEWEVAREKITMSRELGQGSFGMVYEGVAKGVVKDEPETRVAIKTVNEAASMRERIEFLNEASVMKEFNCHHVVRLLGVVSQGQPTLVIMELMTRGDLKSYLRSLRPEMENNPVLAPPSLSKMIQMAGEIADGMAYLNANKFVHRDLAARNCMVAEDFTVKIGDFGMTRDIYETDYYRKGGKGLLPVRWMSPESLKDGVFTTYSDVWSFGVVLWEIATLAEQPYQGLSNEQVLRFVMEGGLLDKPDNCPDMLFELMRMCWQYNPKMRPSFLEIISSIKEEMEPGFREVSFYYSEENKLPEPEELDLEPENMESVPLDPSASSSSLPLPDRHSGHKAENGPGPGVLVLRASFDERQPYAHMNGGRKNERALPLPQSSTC

Turning to `CCOc1cc(N2CCC(O)CC2)ccc1Nc1ncc2c(n1)N(C)c1ccccc1C(=O)N2C`, the IC50 in assay [1], in assay [2], in assay [3] and in assay [6] was > 50 µM in each case. Moreover, the inhibition at 50 µM in assay [4] stood at 13.9%. For the same compound, in assay [5], the inhibition is -7.7%.
